Assay results as given in patent publication US20040180953A1, “Crystalline form of phenylethanolamine, the preparation thereof and pharmaceutical compositions comprising the same” (priority 2001, published 2004).
Structures can show the parent of a compound that is named as a salt.

Columns and labels:
Assay type in all cases: physicochemical
[1] = Thermodynamic stability of the polymorphic forms maintained in solution or suspension; settings: room temperature, or more generally less than or equal to 70° C.; whatever the solvent; hydrochloride
Experimental: Furthermore, in addition to the possibility of having a purer and more homogeneous product, the B form can be obtained with better production efficiency, both with regard to crystallization and with regard to filtration and drying, in particular when it is prepared in propan-2-ol.

[2] = Drying comparison of wet filtration cake in an agitated filter drier
Experimental: The drying, in an agitated filter drier, of a wet filtration cake of SR58611A of A form results, in less than two hours, in a change in crystalline form and in the production of a cake composed of 90% of C form. To return to the A form, it is then necessary to continue the drying at a temperature of greater than 60° C. with agitation for approximately 48 h. […] Furthermore, the shape of the crystals obtained (thick hexagonal plates) makes it possible to reduce the residual moisture content of the filtration cake to contents of less than 20% and in fact facilitates the drying of the product for the purpose of its use as medicamental active principle.

[3] = Kinetic conversion of SR58611A polymorphic mixture to B form in propan-2-ol suspension
Experimental: Polymorphic SR58611 hydrochloride (4.46 g) is suspended at ambient temperature in 0.3 litre of propan-2-ol. After maintaining for 70 h under isothermal conditions, the suspension is composed of SR58611A hydrochloride, B form, >96%. IR spectrum and X-ray diffraction are in agreement. Polymorphic SR58611 hydrochloride (95.2 g) is suspended at 70° C. in 0.3 litre of propan-2-ol. After maintaining for 12 h 30 under isothermal conditions, the suspension is composed of SR58611 hydrochloride, B form, >98%. IR spectrum and X-ray diffraction are in agreement.

SMILES: CCOC(=O)COc1ccc2c(c1)C[C@@H](NC[C@H](O)c1cccc(Cl)c1)CC2.Cl [C form, ethyl [(7S)-7-[(2R)-2-(3-chlorophenyl)-2-hydroxyethylamino]-5,6,7,8-tetrahydronaphth-2-yloxy]-acetate hydrochloride]
- thermodynamic stability relative to the other polymorphs [1]: end up by being converted to the B form

SMILES: CCOC(=O)COc1ccc2c(c1)C[C@@H](NC[C@H](O)c1cccc(Cl)c1)CC2.Cl [A form, ethyl [(7S)-7-[(2R)-2-(3-chlorophenyl)-2-hydroxyethylamino]-5,6,7,8-tetrahydronaphth-2-yloxy]-acetate hydrochloride]
- thermodynamic stability relative to the other polymorphs [1]: end up by being converted to the B form
- C form content of the cake after change in crystalline form on drying ([2]; agitated filter drier, wet filtration cake, in less than two hours): 90%
- further drying time needed to return to the A form ([2]; drying at greater than 60° C. with agitation): approximately 48 h

SMILES: CCOC(=O)COc1ccc2c(c1)C[C@@H](NC[C@H](O)c1cccc(Cl)c1)CC2 [Polymorphic SR58611 hydrochloride, N-[(2S)-7-ethoxycarbonylmethoxy-1,2,3,4-tetrahydronaphth-2-yl]-(2R)-(3-chlorophenyl)-2-hydroxyethanamine hydrochloride]
- B form content of the suspension after conversion ([3]; suspended at 70° C. in propan-2-ol, 12 h 30 isothermal): > 98%
- B form content of the suspension after conversion ([3]; suspended at ambient temperature in propan-2-ol, 70 h isothermal): > 96%

SMILES: CCOC(=O)COc1ccc2c(c1)C[C@@H](NC[C@H](O)c1cccc(Cl)c1)CC2.Cl [B form, ethyl [(7S)-7-[(2R)-2-(3-chlorophenyl)-2-hydroxyethylamino]-5,6,7,8-tetrahydronaphth-2-yloxy]-acetate hydrochloride]
- thermodynamic stability relative to the other polymorphs [1]: the most thermodynamically stable form
- change of crystalline form on drying ([2]; drying of filtration cake): not changing crystalline form on drying
- residual moisture content of the filtration cake ([2]; thick hexagonal plate crystals): less than 20%
